Reference: the supplement of paper PMC3974653
Where a name gives a salt, the structure may show the parent alone.

Tested on: MTT (mouse pheochromocytoma)
Experiment: IC50 of cell viability (ATP content)
Conditions: (24 or 48 h)
Outline: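 Each well of a white 1536-well plate received 5 µl of MTT mouse pheochromocytoma cells at 200,000 cells/ml in DMEM containing 5% FBS and 1% horse serum. After overnight culture at 37°C, 5% CO2, cells were exposed for 24 or 48 hrs to 23 nl of library compound in DMSO, pinned at 8 final concentrations from 0.5 nM to 46 µM. CellTiter-Glo luminescence was read after 15 minutes, and IC50 was obtained from a four-parameter logistic fit of signals normalised to positive-control and DMSO wells.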

Structure (SMILES)	IC50 of cell viability [µM]
CC(O)C(=O)O (stereo unspecified) [Lactic acid]	> 46
O=C(O)[C@@H](O)[C@@H](O)[C@@H](O[C@@H]1O[C@@H](CO)[C@@H](O)[C@@H](O)[C@H]1O)[C@@H](O)CO [Lactobionic acid]	> 46
Nc1ccn([C@@H]2CS[C@H](CO)O2)c(=O)n1 [Lamivudine]	> 46
Nc1nnc(-c2cccc(Cl)c2Cl)c(N)n1 [Lamotrigine]	> 46
CC(=O)OC1CC(OC2C(O)CC(OC3C(O)CC(O[C@H]4CC[C@]5(C)C6CC[C@]7(C)[C@@H](C8=CC(=O)OC8)[C@@H](O)C[C@]7(O)[C@@H]6CC[C@@H]5C4)OC3C)OC2C)OC(C)C1OC1OC(CO)C(O)C(O)C1O (stereo partly specified) [Lanatoside B]	> 46
Cc1c(OCC(F)(F)F)ccnc1C[S+]([O-])c1nc2ccccc2[nH]1 (stereo unspecified) [Lansoprazole]	> 46
Cc1oncc1C(=O)Nc1ccc(C(F)(F)F)cc1 [Leflunomide]	> 46
O=C(CCCN1CCC(C(=O)c2ccc(F)cc2)CC1)c1ccc(F)cc1 [Lenperone]	> 46
N#Cc1ccc(C(c2ccc(C#N)cc2)n2cncn2)cc1 [Letrozole]	> 46
CC1(C)Oc2ccc(C#N)cc2[C@@H](N2CCCC2=O)[C@@H]1O [Levcromakalim]	> 46
CCCCN1CCCC[C@H]1C(=O)Nc1c(C)cccc1C [Levobupivacaine hydrochloride]	> 46
C[C@H]1CN(C2CCC(C#N)(c3ccc(F)cc3)CC2)CC[C@@]1(C(=O)O)c1ccccc1 (stereo partly specified) [Levocabastine hydrochloride]	> 46
c1ccc2c(c1)Sc1ccccc1N2C[C@H]1CN2CCC1CC2 [Levomequitazine]	> 46
C#C[C@]1(O)CC[C@H]2[C@@H]3CCC4=CC(=O)CC[C@@H]4[C@H]3CC[C@@]21CC [Levonorgestrel]	> 46
CCC(=O)O[C@@](Cc1ccccc1)(c1ccccc1)[C@@H](C)CN(C)C.O=[S+]([O-])(O)c1ccc2ccccc2c1 [Levopropoxyphene napsylate]	> 46
N[C@@H](Cc1cc(I)c(Oc2cc(I)c(O)c(I)c2)c(I)c1)C(=O)O [Levothyroxine]	> 46
Cc1cccc(C)c1NC(=O)CN(CC(=O)O)CC(=O)O [Lidofenin]	> 46
CCCCC/C=C\C/C=C\CCCCCCCC(=O)O [Linoleic acid]	> 46
CN(C1=CC=CC=C1)C(=O)C/2=C(O)/C3=C(C=CC=C3)N(C)C2=O [Linomide]	> 46
O=C1N(c2ccccc2)c2ccccc2C1(Cc1ccncc1)Cc1ccncc1 [Linopirdine dihydrochloride]	> 46
NCCCC[C@H](N[C@@H](CCc1ccccc1)C(=O)O)C(=O)N1CCC[C@@H]1C(=O)O.O.O [Lisinopril]	> 46

Structure (SMILES)	IC50 of cell viability [µM]
CC(O)CCCCn1c(=O)c2c(ncn2C)n(C)c1=O (stereo unspecified) [Lisofylline]	> 46
CCN1\C=C(\C(O)=O)C(=O)C2=CC(=C(N3CCN[C@@H](C)C3)C(=C12)F)F [Lomefloxacin HCl]	> 46
O=C(O)c1nn(Cc2ccc(Cl)cc2Cl)c2ccccc12 [Lonidamine]	> 46
O=C1Nc2ccc(Cl)cc2C(c2ccccc2Cl)=NC1O (stereo unspecified) [Lorazepam]	> 46
CCCC(C)(COC(N)=O)COC(=O)NC1CC1 (stereo unspecified) [Lorbamate]	> 46
C[C@H]1CNCCc2ccc(Cl)cc21 [Lorcaserin]	> 46
CN1C(C(=O)Nc2ccccn2)C(=O)c2sc(Cl)cc2[S+]1(=O)[O-] (stereo unspecified) [Lornoxicam]	> 46
CCOC(=O)O[C@]1(C(=O)OCCl)CC[C@H]2[C@@H]3CCC4=CC(=O)C=C[C@]4(C)[C@H]3[C@@H](O)C[C@@]21C [Loteprednol etabonate]	> 46
CN1CCN(CC1)\C2=N\C3=C(OC4=C2C=C(Cl)C=C4)C=CC=C3.OC(=O)CCC(O)=O [Loxapine succinate]	> 46
CCCCC(F)(F)[C@@]1(O)CC[C@H]2[C@@H](CC(=O)[C@@H]2CCCCCCC(=O)O)O1 [Lubiprostone]	> 46
O=C(NC(=O)c1c(F)cccc1F)Nc1cc(Cl)c(OC(F)(F)C(F)C(F)(F)F)cc1Cl (stereo unspecified) [Lufenuron]	> 46
C[C@]12CC[C@@H]3[C@H](CC\C4=C\CCC[C@H]34)[C@@H]1CC[C@]2(O)C#C [Lynestrenol]	> 46
CCN(CC)C(=O)[C@H]\1CN(C)[C@@H]\2CC3=C[NH]C4=C3C(=CC=C4)C2=C1 [Lysergic acid diethylamide]	> 46
CC(C)(C)NCC(O)c1cc(Cl)c(N)c(C(F)(F)F)c1 (stereo unspecified) [MABUTEROL HYDROCHLORIDE]	> 46
CCOC(=O)CC(SP(=S)(OC)OC)C(=O)OCC (stereo unspecified) [MALATHION]	> 46
O=C(O)/C=C/C(=O)O [MALEIC ACID]	> 46
CNC(=O)NC(O)C(Cl)(Cl)Cl (stereo unspecified) [MECLORALUREA]	> 46
CCN(CC)CCNC(=O)COc1ccc(OC)cc1.Cl [MEFEXAMIDE]	> 46
CCCCC/C=C/C/C=C/CCCCCCCC(=O)NC(C)c1ccccc1 (stereo unspecified) [MELINAMIDE]	> 46
CN1\C(=C(\O)C2=CC=CC=C2[S+]1([O-])=O)C(=O)NC3=NC=C(C)S3 [MELOXICAM]	> 46

Other lines, results leading:

IC50 of cell viability [µM]	Structure (SMILES)
> 46	CCOC(=O)C1=C(C)NC(C)=C(C(=O)OCC)C1c1ccccc1/C=C\C(=O)OC(C)(C)C [Lacidipine]
> 46	OC[C@@H](O)C(O[C@@H]1O[C@@H](CO)[C@H](O)[C@H](O)[C@H]1O)[C@H](O)[C@@H](O)CO (stereo partly specified) [Lactitol]
> 46	CC1(C)OC[C@@H](COC(=O)CCc2ccc(OC[C@@H](O)CNCCNC(=O)N3CCOCC3)cc2)O1 [Landiolol Hydrochloride]
> 46	CC1(C)OC[C@@H](COC(=O)CCc2ccc(OC[C@@H](O)CNCCNC(=O)N3CCOCC3)cc2)O1 [Landiolol]
> 46	CCNC(=O)[C@H]1CCCN1C(=O)[C@H](CCCNC(=N)N)NC(=O)[C@H](CC(C)C)NC(=O)[C@H](CC(C)C)NC(=O)[C@@H](Cc1ccc(O)cc1)NC(=O)[C@H](CO)NC(=O)[C@@H](Cc1c[nH]c2ccccc12)NC(=O)[C@H](Cc1c[nH]cn1)NC(=O)[C@@H]1CCC(=O)N1 [Leuprolide acetate salt]
> 46	CCN1CCC[C@H]1CNC(=O)c1cc([S+](N)(=O)[O-])ccc1OC [Levosulpiride]
> 46	CNC(=N)NC(=O)Nc1c(C)cccc1C [Lidamidine]
> 46	Cc1cccc(C)c1NC(=O)CN1CCN(CCCC(c2ccc(F)cc2)c2ccc(F)cc2)CC1 [Lidoflazine]
> 46	CN1CCC(OC(=O)C(Oc2ccc(Cl)cc2)Oc2ccc(Cl)cc2)CC1 [Lifibrate]
> 46	CCC[C@@H]1C[C@@H](C(=O)N[C@@H]([C@H]2O[C@H](SC)[C@H](O)[C@@H](O)[C@H]2O)[C@@H](C)O)N(C)C1 [Lincomycin hydrochloride]
> 46	CC(=O)NC[C@@H]1CN(c2ccc(N3CCOCC3)c(F)c2)C(=O)O1 [Linezolid]
> 46	CCN1\C=C(\C(O)=O)C(=O)C2=CC(=C(N3CCN[C@@H](C)C3)C(=C12)F)F [Lomefloxacin hydrochloride]
> 46	O=C(O)Cc1cn(-c2ccccc2)nc1-c1ccc(Cl)cc1 [Lonazolac]
> 46	Cl/C(=C\n1cncn1)c1ccc(Cl)cc1Cl [Loreclezole hydrochloride]
> 46	CC[C@H](C)C(=O)O[C@H]1C[C@@H](C)\C=C2\C=C/[C@H](C)[C@H](CC[C@@H]3C[C@@H](O)CC(=O)O3)[C@@H]12 [Lovastatin]
> 46	CCNC(=O)NCc1cccc(Cl)c1 [Lozilurea]
> 46	N#C/C(=C1/SC[C@@H](c2ccc(Cl)cc2Cl)S1)n1ccnc1 [Luliconazole]
> 46	Cc1ccc(Nc2c(F)cccc2Cl)c(CC(=O)O)c1 [Lumiracoxib]
> 46	NCCCCC(NC(=O)C1CCCN1C(=O)C1CSSCC(N)C(=O)NC(Cc2ccc(O)cc2)C(=O)NC(Cc2ccccc2)C(=O)NC(CCC(N)=O)C(=O)NC(CC(N)=O)C(=O)N1)C(=O)NCC(N)=O (stereo unspecified) [Lypressin]
> 46	NCCCCC(N)C(=O)O (stereo unspecified) [Lysine]
> 46	O=C1[O][Mg]2([O]C(=O)c3ccccc3[O]2)[O]c2ccccc21 [MAGNESIUM SALICYLATE]
> 46	O=C(O)CC(O)C(=O)O.[NaH] (stereo unspecified) [MALIC ACID]
> 46	CNCCCC12CCC(c3ccccc31)c1ccccc12 [MAPROTILINE]
> 46	Cc1cc(C)c(NC(=O)CN(CC(=O)O)CC(=O)O)c(C)c1Br [MEBROFENIN]
> 46	CNC1(C)C2CCC(C2)C1(C)C (stereo unspecified) [MECAMYLAMINE]
> 46	O=P(O)(O)CP(=O)(O)O [MEDRONIC ACID]
> 46	CC1CC2C(CC[C@]3(C)C2CC[C@@]3(OC(C)=O)C(C)=O)[C@]\4(C)CCC(=O)\C=C14 (stereo partly specified) [MEDROXYPROGESTERONE ACETATE]
> 46	CN(CC1(C)CCCO1)[S+](=O)([O-])c1ccc(Cl)c([S+](N)(=O)[O-])c1 (stereo unspecified) [MEFRUSIDE]
> 46	COc1ccc2[nH]cc(CCNC(C)=O)c2c1 [MELATONIN]
> 46	CC1CCN(CCCC(=O)c2ccc(F)cc2)CC1 [MELPERONUM]
